Key:
[1] = Cytotoxicity against Wistar rat CC1 cells assessed as cell viability at 1 to 20 ug/ml after 48 hrs by MTT assay; assay type: cell-based; details: cc-1, 48 h
[2] = Cytotoxicity against mouse 3T3L1 cells assessed as cell viability at 1 to 20 ug/ml after 48 hrs by MTT assay; assay type: cell-based; details: 3t3-l1, 48 h
[3] = system: alpha-glucosidase (Saccharomyces cerevisiae); assay: Inhibition of alpha-glucosidase (Saccharomyces cerevisiae) using p-nitrophenyl glucopyranoside as substrate preincubated for 10 mins followed by substrate addition measured after 30 mins by plate reader analysis
[4] = system: alpha-glucosidase (Saccharomyces cerevisiae); assay: Potency index, ratio of acarbose IC50 to compound IC50 for alpha glucosidase (Saccharomyces cerevisiae)

SMILES	inhibition [3]	IC50 [3]	Ratio IC50 [4]	Activity [1]	Activity [2]
O=C(N/N=C/c1ccncc1)c1ccc(-c2nnc(-c3ccc4ncccc4c3)o2)cc1	< 50%			Non-toxic	Non-toxic
O=C(N/N=C/c1ccc(O)cc1)c1ccc(-c2nnc(-c3ccc4ncccc4c3)o2)cc1		27.2 µM		Non-toxic	Non-toxic
O=C(N/N=C/c1cccc(Cl)c1)c1ccc(-c2nnc(-c3ccc4ncccc4c3)o2)cc1		30.2 µM		Non-toxic	Non-toxic
O=C(N/N=C/c1cccnc1)c1ccc(-c2nnc(-c3ccc4ncccc4c3)o2)cc1	< 50%			Non-toxic	Non-toxic
O=C(N/N=C/c1cc(O)c(O)cc1O)c1ccc(-c2nnc(-c3ccc4ncccc4c3)o2)cc1		2.6 µM	> 14	Non-toxic	Non-toxic
O=C(N/N=C/c1ccc(Cl)cc1)c1ccc(-c2nnc(-c3ccc4ncccc4c3)o2)cc1		3.9 µM		Non-toxic	Non-toxic
O=C(N/N=C/c1cccc(O)c1)c1ccc(-c2nnc(-c3ccc4ncccc4c3)o2)cc1		39.2 µM		Non-toxic	Non-toxic
Cc1ccccc1/C=N/NC(=O)c1ccc(-c2nnc(-c3ccc4ncccc4c3)o2)cc1		80.1 µM		Non-toxic	Non-toxic
O=C(N/N=C/c1ccccc1Cl)c1ccc(-c2nnc(-c3ccc4ncccc4c3)o2)cc1		4.16 µM		Non-toxic	Non-toxic
COc1ccc(O)c(/C=N/NC(=O)c2ccc(-c3nnc(-c4ccc5ncccc5c4)o3)cc2)c1		6.2 µM		Non-toxic	Non-toxic
COc1ccc(/C=N/NC(=O)c2ccc(-c3nnc(-c4ccc5ncccc5c4)o3)cc2)cc1O		21.2 µM		Non-toxic	Non-toxic
O=C(N/N=C/c1ccc(O)cc1O)c1ccc(-c2nnc(-c3ccc4ncccc4c3)o2)cc1		8.45 µM		Non-toxic	Non-toxic
O=C(N/N=C/c1ccccc1O)c1ccc(-c2nnc(-c3ccc4ncccc4c3)o2)cc1		2.86 µM	> 14	Non-toxic	Non-toxic
O=C(N/N=C/c1cc(O)cc(O)c1)c1ccc(-c2nnc(-c3ccc4ncccc4c3)o2)cc1		37.1 µM		Non-toxic	Non-toxic

Second part, led by results:

inhibition [3]	IC50 [3]	Ratio IC50 [4]	SMILES	Activity [1]	Activity [2]
	40.5 µM		O=C(N/N=C/c1ccccn1)c1ccc(-c2nnc(-c3ccc4ncccc4c3)o2)cc1	Non-toxic	Non-toxic
	9.2 µM		COc1ccc(/C=N/NC(=O)c2ccc(-c3nnc(-c4ccc5ncccc5c4)o3)cc2)c(O)c1	Non-toxic	Non-toxic
	15.2 µM		O=C(N/N=C/c1ccccc1[N+](=O)[O-])c1ccc(-c2nnc(-c3ccc4ncccc4c3)o2)cc1	Non-toxic	Non-toxic
	2.6 µM	> 14	O=C(N/N=C/c1ccc(O)c(O)c1)c1ccc(-c2nnc(-c3ccc4ncccc4c3)o2)cc1	Non-toxic	Non-toxic
	8.5 µM		O=C(N/N=C/c1cc(O)ccc1O)c1ccc(-c2nnc(-c3ccc4ncccc4c3)o2)cc1	Non-toxic	Non-toxic
	6.8 µM		O=C(N/N=C/c1cccc(O)c1O)c1ccc(-c2nnc(-c3ccc4ncccc4c3)o2)cc1	Non-toxic	Non-toxic
	8.12 µM		O=C(N/N=C/c1c(O)cc(O)cc1O)c1ccc(-c2nnc(-c3ccc4ncccc4c3)o2)cc1	Non-toxic	Non-toxic
	102 µM		Cc1ccc(/C=N/NC(=O)c2ccc(-c3nnc(-c4ccc5ncccc5c4)o3)cc2)cc1	Non-toxic	Non-toxic
	100 µM		Cc1cccc(/C=N/NC(=O)c2ccc(-c3nnc(-c4ccc5ncccc5c4)o3)cc2)c1	Non-toxic	Non-toxic
	63.5 µM		O=C(N/N=C/c1ccc([N+](=O)[O-])cc1)c1ccc(-c2nnc(-c3ccc4ncccc4c3)o2)cc1	Non-toxic	Non-toxic
	36.5 µM		O=C(N/N=C/c1cccc([N+](=O)[O-])c1)c1ccc(-c2nnc(-c3ccc4ncccc4c3)o2)cc1	Non-toxic	Non-toxic

— ChEMBL document CHEMBL3751662, “Novel quinoline derivatives as potent in vitro -glucosidase inhibitors: in silico studies and SAR predictions” (Medchemcomm, 2015)
